Assay results published in patent EP4755375A1, “PHARMACEUTICAL COMPOSITION CONTAINING SUBSTITUTED INDOL-5-OL DERIVATIVE AND USE THEREOF” (Changshan Conjuchem Biopharmaceutical Research and …, priority 2023, dated 2025).
In brackets after ≈: the same amount, converted by molar mass.

Key:
[1] = Dog PK: bioavailability of solid dispersions and API; type: in vivo; settings: plasma, beagle dogs (male, fasted), oral, dose 5 mg/kg
Experimental: Based on the solubility data from the solid dispersion formulation examples above, the API (administration form: 10 mg/mL suspension, API suspended in 0.5% CMC-Na solution) and solid dispersions prepared using PVP K30 (drug-excipient ratios of 1:3 and 1:4, respectively) were selected for dog PK experiments. The solid dispersions were filled into hard capsules and orally administered to beagle dogs (male, fasted, 3 dogs per group) at a dose of 5 mg/kg. Whole blood samples of 0.3 mL were collected at 0 min, 10 min, 15 min, 30 min, 1 h, 2 h, 3 h, 4 h, 6 h, 8 h, 12 h, and 24 h after administration. The blood samples were placed in anticoagulant tubes, gently inverted several times, and then kept on wet ice in preparation for centrifugation. Within 30 minutes after collection, the samples were centrifuged at about 2000 × g (force) at 4°C for 10 minutes to obtain plasma. The resulting plasma samples were immediately divided into two aliquots (about 75 µL each) and transferred to cryovials. The samples were maintained on wet ice throughout the processing and stored in a freezer at -75 ± 15°C until analysis. The concentrations of the test substance in the plasma samples were analyzed using an LC-MS/MS method. Table 50 Summary of Dog PK Data for SDD Formulations

[2] = Saturated solubility of API in different solvents/media; type: physicochemical; settings: for solubility at 24 h: organic solvent or mixture, thermodynamic from solid, room temperature
Experimental: The saturated solubility of the compound of the present invention in different solvents/media is shown in Table 1 (Test method: An appropriate excess amount of API was placed in an appropriate amount of solvent and shaken at room temperature for 24 hours, after which the sample solution was processed and analyzed). Among them, methanol and acetone are the optimal choices. Table 1 Saturated Solubility of the Compound of the Present Invention in Different Solvents/Media

[3] = Dog PK experiment for tablets; type: in vivo; settings: plasma, beagle dogs (male, fasted), oral, dose 5 mg/kg
Experimental: Example 59 and Example 60 were orally administered to beagle dogs (male, fasted, 3 dogs per group) at a dose of about 5 mg/kg. Example 65 was orally administered to beagle dogs (half male and half female, fasted, 8 dogs) at a dose of 50 mg/animal (about 5 mg/kg). Whole blood samples of 0.3 mL were collected at 0 min, 10 min, 15 min, 30 min, 1 h, 2 h, 3 h, 4 h, 6 h, 8 h, 12 h, and 24 h after administration. The blood samples were placed in anticoagulant tubes, gently inverted several times, and then kept on wet ice in preparation for centrifugation. Within 30 minutes after collection, the samples were centrifuged at about 2000 × g (force) at 4°C for 10 minutes to obtain plasma. The resulting plasma samples were immediately divided into two aliquots (about 75 µL each) and transferred to cryovials. The samples were maintained on wet ice throughout the processing and stored in a freezer at -75 ± 15°C until analysis. The concentrations of the test substance in the plasma samples were analyzed using an LC-MS/MS method. Table 51 Summary of Dog PK Data for Tablets

[4] = Solubility of API in solvent combinations (visual dissolution); type: physicochemical; settings: organic solvent combinations of Table 2, organic solvent or mixture, thermodynamic from solid; solvent combinations of Table 2 (acetone/methanol, acetone/ethanol, with water or dichloromethane); read-out: solubility of API in the solvent combinations listed in Table 2
Experimental: The solvent compositions capable of simultaneously dissolving the compound of the present invention and the carrier materials are shown in Table 2. The detection method for the solubility of API in different solvent combinations is as follows: Weigh 20 mg of the compound of the present invention and add it to 4 mL of different solvents or solvent combinations, respectively. Gently shake and observe the dissolution phenomenon. If complete dissolution occurs, add a small amount of additional API to the above solution, continue shaking, and observe the dissolution phenomenon. […] All carrier materials listed in Table 2 are soluble in the selected solvents or solvent combinations. Table 2 Solvent Compositions Capable of Simultaneously Dissolving the Compound of the Present Invention and the Carrier

[5] = Solubility testing of solid dispersions in media with different pH values (shaker, 24 hours); type: physicochemical; settings: 0.1mol/L HCl
Experimental: (§1) Weigh an amount of powder (equivalent to 50 mg of API) from Examples 1-7 into a 10-mL vial, add 5 mL of media with different pH values, so that the theoretical concentration of API in the sample solution was about 10 mg/mL. Shake the vials in a shaker for 24 hours, and determine the solubility. During shaking, observe the dissolution phenomenon of the powder in the solution. If the solution becomes clear, add an additional amount of sample powder. Table 4 Solubility of Solid Dispersions Prepared Using Povidone in Different Media
Weigh an amount of powder (equivalent to 50 mg of API) from Examples 9-13 into a 10-mL vial, add a corresponding volume of media with different pH values, so that the theoretical concentration of API in the solution was about 10 mg/mL (the theoretical concentration of API in the sample solution of Example 13 was about 5 mg/mL). Shake the vials in a shaker for 24 hours, and sample at 4 h and 24 h to determine the solubility. During shaking, observe the dissolution phenomenon of the powder in the solution. If the solution becomes clear, add an additional amount of sample powder. Table 7 Solubility of Solid Dispersions Prepared Using HPMC in Different Media
as §1, with “Examples 14-16” for “Examples 1-7”, “add a corresponding volume” for “add 5 mL”, “and sample at 4 h and 24 h to” for “and”, “Table 9” for “Table 4”, “Using HPC” for “Using Povidone”
as §1, with “Examples 17-21” for “Examples 1-7”, “add a corresponding volume” for “add 5 mL”, “and sample at 4 h and 24 h to” for “and”, “Table 11” for “Table 4”, “Using Copovidone S630” for “Using Povidone”
Weigh an amount of powder (equivalent to 50 mg of API) from Examples 22-24 into a 10-mL vial, add a corresponding volume of media with different pH values, so that the theoretical concentration of API in the sample solution was about 10 mg/mL. Shake the vials in a shaker for 24 hours, and sample at 4 h and 24 h to determine solubility. Table 13 Solubility of Solid Dispersions Prepared Using HPMC AS in Different Media
Weigh an amount of powder(equivalent to 50 mg of API) from Examples 25-28 into a 10 mL vial, add a corresponding volume of media with different pH values, so that the theoretical concentration of API in the sample solution was about 10 mg/mL. Shake the vials in a shaker for 24 hours, and sample at 4 h and 24 h to determine the solubility. During shaking, observe the dissolution phenomenon of the powder in the solution. If the solution becomes clear, add an additional amount of sample powder. Table 15 Solubility of Solid Dispersions Prepared Using Polyethylene Glycol in Different Media […]

Compound: C/C=C/c1cc(Nc2cc(N3CCN(C)CC3)nc(Oc3cc(F)c4[nH]c(C)cc4c3F)n2)n[nH]1 [API]
- AUC [1]: 59 ng·h/mL
- Cmax [1]: 22 ng/mL
- Solubility Description ([2]; Acetone): Slightly soluble
- Solubility Description ([2]; Acetonitrile): Slightly soluble
- Solubility Description ([2]; Ethanol): Slightly soluble
- Solubility Description ([2]; Ethyl acetate): Slightly soluble
- Solubility Description ([2]; Isopropanol): Slightly soluble
- Solubility Description ([2]; Methanol): Slightly soluble
- Solubility Description ([2]; Propylene glycol): Slightly soluble
- solubility at 24 h ([2]; Acetone): 5990 µg/mL (≈ 12.5 mM)
- solubility at 24 h ([2]; Acetonitrile): 1220 µg/mL (≈ 2.54 mM)
- solubility at 24 h ([2]; Ethanol): 5170 µg/mL (≈ 10.8 mM)
- solubility at 24 h ([2]; Ethyl acetate): 4980 µg/mL (≈ 10.4 mM)
- solubility at 24 h ([2]; Isopropanol): 2340 µg/mL (≈ 4.87 mM)
- solubility at 24 h ([2]; Methanol): 8360 µg/mL (≈ 17.4 mM)
- solubility at 24 h ([2]; Propylene glycol): 2220 µg/mL (≈ 4.62 mM)
- AUC [3]: 59 ng·h/mL
- Cmax [3]: 22 ng/mL
- Solubility [4]: > 5000 µg/mL
- Solubility ([5]; 4h, API alone, sample concentration not given): 50 µg/mL (≈ 0.104 mM)
- Solubility ([5]; 24h, API alone, sample concentration not given): 50 µg/mL (≈ 0.104 mM)
- solubility at 2 h ([5]; simulated gastric fluid, thermodynamic from solid, 2h, API alone, sample concentration not given): 50 µg/mL (≈ 0.104 mM)
- solubility at 4 h ([5]; simulated gastric fluid, thermodynamic from solid, 4h, sample Supersaturated): 50 µg/mL (≈ 0.104 mM)
- solubility at 24 h ([5]; simulated gastric fluid, thermodynamic from solid, 24h, sample Supersaturated): 50 µg/mL (≈ 0.104 mM)
